This is an account of results in patent US10189841B2, “Purinones as ubiquitin-specific protease 1 inhibitors” (Forma Therapeutics, Inc., priority 2015, dated 2019).

The assay concerns the target USP1 (construct USP1 (I-785, GG670, 671AA)/UAF1 (I-677)-Flag) (Homo sapiens (Human), UniProt O94782, G670A/G671A). The assay is described as follows: Ubiquitin-Rhodamine 110 assay for USP1 activity. Type of assay: biochemical. The following applies: USP1/UAF1 25 pM, Ub-Rh110 25 nM, 30 min preincubation. As for the experimental part:
Example 53: Ubitquin-Rhodamine 110 Assay for USP1 Activity
The HTS assay was performed in a final volume of 20 μL in assay buffer containing 20 mM Tris-HCl (pH 8.0, (1M Tris-HCl, pH 8.0 solution; Corning 46-031-CM)), 2 mM CaCl2 (1M Calcium Chloride solution; Sigma #21114) 1 mM GSH (L-Glutathione reduced; Sigma #G4251), 0.01% Prionex ([…] filtered, Sigma #G-0411), and 0.01% Triton X-100. Stock compound solutions were stored at −20° C. as 10 mM in DMSO. Up to 1 month prior to the assay, 2 mM test compounds were pre-dispensed into assay plates (Black, low volume; Corning #3820) and frozen at −20° C. Prestamped assay plates were allowed to come to room temperature on the day of the assay. For the screen, 100 nL of 2 mM was pre-dispensed for a final screening concentration of […] (DMSO(fc)=0.5%). The final concentration of the enzyme (USP1, construct USP1 (I-785, GG670, 671AA)/UAF1 (I-677)-Flag; Viva) in the assay was 100 pM. Final substrate (Ub-Rh110; Ubiquitin-Rhodamine 110, R&D Systems #U-555) concentration was 25 nM with [Ub-Rh110]<<Km. […] Plates were incubated stacked for 45 minutes at room temperature before fluorescence was read on the Envision (Excitation at 485 nm and Emission at 535 nm; Perkin Elmer) or on the PheraSTAR (Excitation at 485 nm and Emission at 535 nm; BMG Labtech)
Nanoliter quantities of either an 8-point or 10-point, 3-fold serial dilution in DMSO was pre-dispensed into assay plates (Perkin Elmer, ProxiPlate-384 F Plus, #6008269) for a final test concentration range of either 25 μM to 11 nM or 25 μM to 1.3 nM, respectively. The final concentration of the enzyme (USP1, construct USP1 (I-785, GG670, 671AA)/UAF1 (I-677)-Flag; Viva) in the assay was 25 pM. Final substrate (Ub-Rh110; Ubiquitin-Rhodamine 110, R&D Systems #U-555) concentration was 25 nM with [Ub-Rh110]<<Km. […] Plates were incubated stacked for 20 minutes at room temperature before 5 μL of stop solution (final concentration of 10 mM citric acid in assay buffer (Sigma, #251275-500G)). Fluorescence was read on the Envision (Excitation at 485 nm and Emission at 535 nm; Perkin Elmer) or on the PheraSTAR (Excitation at 485 nm and Emission at 535 nm; BMG Labtech).
For both assay formats data were reported as percent inhibition compared with control wells based on the following equation: % inh=[1−((FLU−AveLow)/(AveHigh−AveLow))]×100 where FLU=measured Fluorescence, AveLow=average Fluorescence of no enzyme control (n=16), and AveHigh=average Fluorescence of DMSO control (n=16). IC50 values were determined by curve fitting of the standard 4 parameter logistic fitting algorithm included in the Activity Base software package: IDBS XE Designer Model205. Data is fitted using the Levenburg Marquardt algorithm.

Each structure is given as a SMILES string.

USP1 (construct USP1 (I-785, GG670, 671AA)/UAF1 (I-677)-Flag), sequence (O94782 whole entry G670A/G671A): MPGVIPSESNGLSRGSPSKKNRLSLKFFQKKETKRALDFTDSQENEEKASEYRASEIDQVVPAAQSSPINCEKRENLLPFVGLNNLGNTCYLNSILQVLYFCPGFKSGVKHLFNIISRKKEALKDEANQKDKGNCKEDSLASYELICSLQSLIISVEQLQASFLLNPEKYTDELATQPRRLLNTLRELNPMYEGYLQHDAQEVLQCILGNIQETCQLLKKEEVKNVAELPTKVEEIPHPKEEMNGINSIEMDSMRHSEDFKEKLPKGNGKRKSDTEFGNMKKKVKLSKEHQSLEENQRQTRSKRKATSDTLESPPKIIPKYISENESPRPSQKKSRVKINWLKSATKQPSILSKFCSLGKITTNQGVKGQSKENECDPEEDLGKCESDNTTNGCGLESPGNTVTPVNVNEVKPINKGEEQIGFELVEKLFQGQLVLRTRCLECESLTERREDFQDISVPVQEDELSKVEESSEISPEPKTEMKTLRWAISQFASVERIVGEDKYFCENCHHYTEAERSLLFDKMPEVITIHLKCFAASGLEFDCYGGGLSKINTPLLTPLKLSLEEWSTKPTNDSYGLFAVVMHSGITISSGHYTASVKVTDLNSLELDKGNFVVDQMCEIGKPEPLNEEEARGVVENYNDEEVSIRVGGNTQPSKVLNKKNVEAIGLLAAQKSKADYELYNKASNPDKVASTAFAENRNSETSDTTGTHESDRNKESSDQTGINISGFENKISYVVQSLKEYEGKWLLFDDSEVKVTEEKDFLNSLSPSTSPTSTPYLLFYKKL
USP1 (construct USP1 (I-785, GG670, 671AA)/UAF1 (I-677)-Flag), sequence (Q8TAF3 whole entry partner): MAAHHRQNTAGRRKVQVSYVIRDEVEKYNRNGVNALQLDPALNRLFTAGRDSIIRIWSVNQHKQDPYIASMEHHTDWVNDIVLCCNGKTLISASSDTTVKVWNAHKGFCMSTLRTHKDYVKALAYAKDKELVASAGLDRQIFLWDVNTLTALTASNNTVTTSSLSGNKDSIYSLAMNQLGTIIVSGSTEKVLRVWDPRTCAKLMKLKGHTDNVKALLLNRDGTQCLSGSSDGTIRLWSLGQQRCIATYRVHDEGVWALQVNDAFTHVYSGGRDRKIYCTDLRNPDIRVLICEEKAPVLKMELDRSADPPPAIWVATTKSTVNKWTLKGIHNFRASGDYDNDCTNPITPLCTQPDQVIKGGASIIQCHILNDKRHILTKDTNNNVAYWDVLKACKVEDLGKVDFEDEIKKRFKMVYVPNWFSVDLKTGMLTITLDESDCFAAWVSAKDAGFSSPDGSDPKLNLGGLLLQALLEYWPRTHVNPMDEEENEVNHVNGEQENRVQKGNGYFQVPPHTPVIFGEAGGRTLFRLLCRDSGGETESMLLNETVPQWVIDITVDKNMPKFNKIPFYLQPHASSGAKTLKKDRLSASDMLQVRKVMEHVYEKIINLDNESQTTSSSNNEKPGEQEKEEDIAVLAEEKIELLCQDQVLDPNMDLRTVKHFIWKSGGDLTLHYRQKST

Usually IC50 stands for the concentration that inhibits the measured activity by half. Take `CC(C)c1ccccc1-c1ncc2[nH]c(=O)n(Cc3ccc(-c4ncc[nH]4)cc3)c2n1` [Compound I-437, 9-(4-(1H-imidazol-2-yl)benzyl)-2-(2-isopropylphenyl)-7,9-dihydro-8H-purin-8-one]: the IC50 is less than 50 nM.

On to `CC(C)c1ccccc1-c1ncc2[nH]c(=O)n(Cc3ccc(C(=O)N(C)C4CC4)cc3)c2n1` [Compound I-379, N-cyclopropyl-4-((2-(2-isopropylphenyl)-8-oxo-7,8-dihydro-9H-purin-9-yl)methyl)-N-methylbenzamide], for which the IC50 is less than 50 nM.

In turn, `CC(C)c1ccccc1-c1ncc2[nH]c(=O)n(Cc3ccc(C(=O)N(C)CC(F)(F)F)cc3)c2n1` [Compound I-406, 4-((2-(2-isopropylphenyl)-8-oxo-7,8-dihydro-9H-purin-9-yl)methyl)-N-methyl-N-(2,2,2-trifluoroethyl)benzamide] showed an IC50 of 50 to 200 nM.

The compound `COc1nc(-c2ccc(Cn3c(=O)n(C)c4cnc(-c5ccccc5C(C)C)nc43)cc2)nn1C` [Compound I-281, 2-(2-isopropylphenyl)-9-(4-(5-methoxy-1-methyl-1H-1,2,4-triazol-3-yl)benzyl)-7-methyl-7,9-dihydro-8H-purin-8-one] registered a 50% inhibitory concentration (IC50) of less than 50 nM.

Compound `COC(C)CCOc1ncccc1-c1ncc2[nH]c(=O)n(Cc3ccc(-c4nc(C(F)(F)F)cn4C)cc3)c2n1` (stereo not drawn) [Compound I-426, 2-(2-(3-methoxybutoxy)pyridin-3-yl)-9-(4-(1-methyl-4-(trifluoromethyl)-1H-imidazol-2-yl)benzyl)-7,9-dihydro-8H-purin-8-one] gave an IC50 of less than 50 nM.

Take `CC(C)c1ccccc1-c1ncc2c(n1)n(Cc1ccc(OCc3cncn3C)cc1)c(=O)n2C` [Compound I-232, 2-(2-isopropylphenyl)-7-methyl-9-(4-((1-methyl-1H-imidazol-5-yl)methoxy)benzyl)-7,9-dihydro-8H-purin-8-one]: the IC50 is 200 to 2000 nM.

With `CC(C)c1ccccc1-c1ncc2[nH]c(=O)n(Cc3ccc(-n4ncc5c4CNC5)cc3)c2n1` [Compound I-102, 9-(4-(5,6-dihydropyrrolo[3,4-c]pyrazol-1(4H)-yl)benzyl)-2-(2-isopropylphenyl)-7,9-dihydro-8H-purin-8-one], the half-inhibitory concentration (IC50) fell in the range of 200 to 2000 nM.

Compound `CC(=O)N1CCC(c2ccn(-c3ccc(Cn4c(=O)[nH]c5cnc(-c6ccccc6C(C)C)nc54)cc3)n2)CC1` [Compound I-463, 9-(4-(3-(1-acetylpiperidin-4-yl)-1H-pyrazol-1-yl)benzyl)-2-(2-isopropylphenyl)-7,9-dihydro-8H-purin-8-one] showed an IC50 of less than 50 nM.

Compound `O=c1[nH]c2cnc(-c3ccccc3OC(F)F)nc2n1Cc1ccc(-n2ccc(F)n2)cc1` [Compound I-89, 2-(2-(difluoromethoxy)phenyl)-9-(4-(3-fluoro-1H-pyrazol-1-yl)benzyl)-7,9-dihydro-8H-purin-8-one] displayed an IC50 of 200 to 2000 nM.

In turn, `CC(C)c1ccccc1-c1ncc2c(n1)n(Cc1ccc(N(C)CC3CC3)cc1)c(=O)n2C` [Compound I-490, 9-(4-((cyclopropylmethyl)(methyl)amino)benzyl)-2-(2-isopropylphenyl)-7-methyl-7,9-dihydro-8H-purin-8-one] yielded an IC50 of 200 to 2000 nM.

Turning to `Cc1cc(C(=O)N(C)c2ccc(Cn3c(=O)n(C)c4cnc(-c5ccccc5C(C)C)nc43)cc2)n[nH]1` [Compound I-470, N-(4-((2-(2-isopropylphenyl)-7-methyl-8-oxo-7,8-dihydro-9H-purin-9-yl)methyl)phenyl)-N,5-dimethyl-1H-pyrazole-3-carboxamide], the IC50 is more than 2000 nM.

As to `CC(C)c1ccccc1-c1ncc2[nH]c(=O)n(Cc3ccc(-c4nc(C(F)(F)F)cn4C4CN(C)C4)cc3)c2n1` [Compound I-447, 2-(2-isopropylphenyl)-9-(4-(1-(1-methylazetidin-3-yl)-4-(trifluoromethyl)-1H-imidazol-2-yl)benzyl)-7,9-dihydro-8H-purin-8-one], the half-maximal inhibitory concentration (IC50) is less than 50 nM.

`Cc1nnc(-c2ccc(Cn3c(=O)[nH]c4cnc(-c5ccccc5C(C)C)nc43)cc2)o1` [Compound I-150, 2-(2-isopropylphenyl)-9-(4-(5-methyl-1,3,4-oxadiazol-2-yl)benzyl)-7,9-dihydro-8H-purin-8-one] showed a 50% inhibitory concentration (IC50) of less than 50 nM.

In turn, `COc1cccc(-c2ncc3[nH]c(=O)n(Cc4ccc(-n5cccn5)cc4)c3n2)c1C(C)C` [Compound I-92, 9-(4-(1H-pyrazol-1-yl)benzyl)-2-(2-isopropyl-3-methoxyphenyl)-7,9-dihydro-8H-purin-8-one] had an IC50 of 200 to 2000 nM.

In turn, `CC(C)c1ncc(F)cc1-c1ncc2c(n1)n(Cc1ccc(-c3nc(C(F)(F)F)cn3C)cc1)c(=O)n2C` [Compound I-69, 2-(5-fluoro-2-isopropylpyridin-3-yl)-7-methyl-9-(4-(1-methyl-4-(trifluoromethyl)-1H-imidazol-2-yl)benzyl)-7,9-dihydro-8H-purin-8-one] yielded a concentration for half-maximal inhibition (IC50) of less than 50 nM.

For `CC(C)c1ncccc1-c1ncc2[nH]c(=O)n(Cc3cc(F)c(-c4nc(C(F)(F)F)cn4C)c(F)c3)c2n1` [Compound I-82, 9-(3,5-difluoro-4-(1-methyl-4-(trifluoromethyl)-1H-imidazol-2-yl)benzyl)-2-(2-isopropylpyridin-3-yl)-7,9-dihydro-8H-purin-8-one], the 50% inhibitory concentration (IC50) was less than 50 nM.

`Cc1nc(CN(C)C(=O)c2ccc(Cn3c(=O)[nH]c4cnc(-c5ccccc5C(C)C)nc43)cc2)cs1` [Compound I-371, 4-((2-(2-isopropylphenyl)-8-oxo-7,8-dihydro-9H-purin-9-yl)methyl)-N-methyl-N-((2-methylthiazol-4-yl)methyl)benzamide] gave a concentration for half-maximal inhibition (IC50) of 50 to 200 nM.

For the compound `Cn1cc(C(F)(F)F)nc1-c1ccc(Cn2c(=O)n(C)c3cnc(-c4cccnc4OC4CC4)nc32)cc1` [Compound I-137, 2-(2-cyclopropoxypyridin-3-yl)-7-methyl-9-(4-(1-methyl-4-(trifluoromethyl)-1H-imidazol-2-yl)benzyl)-7,9-dihydro-8H-purin-8-one], the half-maximal inhibitory concentration (IC50) is less than 50 nM.

`CC(C)c1ccccc1-c1ncc2[nH]c(=O)n(Cc3cnc(-n4cccn4)cn3)c2n1` [Compound I-508, 9-((5-(1H-Pyrazol-1-yl)pyrazin-2-yl)methyl)-2-(2-isopropylphenyl)-7,9-dihydro-8H-purin-8-one] came in with an IC50 of more than 2000 nM.

`CC(C)c1ccccc1-c1ncc2c(n1)n(Cc1ccc(-c3ccccc3OCCN(C)C)cc1)c(=O)n2C` [Compound I-259, 9-((2′-(2-(dimethylamino)ethoxy)-[1,1′-biphenyl]-4-yl)methyl)-2-(2-isopropylphenyl)-7-methyl-7,9-dihydro-8H-purin-8-one] gave a concentration for half-maximal inhibition (IC50) of less than 50 nM.

Turning to `CC(C)c1ccccc1-c1nc(N(C)C)c2[nH]c(=O)n(Cc3ccc(-c4nc(C(F)(F)F)cn4C)cc3)c2n1` [Compound I-533, 6-(Dimethylamino)-2-(2-isopropylphenyl)-9-(4-(1-methyl-4-(trifluoromethyl)-1H-imidazol-2-yl)benzyl)-7,9-dihydro-8H-purin-8-one], the IC50 was less than 50 nM.

Regarding `CC(C)c1ccccc1-c1ncc2[nH]c(=O)n(C3CCC34CN(c3cccnc3)C4)c2n1` (stereo not drawn) [Compound I-495, 2-(2-isopropylphenyl)-9-(2-(pyridin-3-yl)-2-azaspiro[3.3]heptan-5-yl)-7,9-dihydro-8H-purin-8-one], the concentration for half-maximal inhibition (IC50) was 200 to 2000 nM.

Turning to `Cn1cc(C(F)(F)F)nc1-c1ccc(Cn2c(=O)[nH]c3cnc(-c4cccnc4N4CC(C(F)(F)F)C4)nc32)cc1` [Compound I-337, 9-(4-(1-methyl-4-(trifluoromethyl)-1H-imidazol-2-yl)benzyl)-2-(2-(3-(trifluoromethyl)azetidin-1-yl)pyridin-3-yl)-7,9-dihydro-8H-purin-8-one], the IC50 was less than 50 nM.

For `CCn1ccnc1-c1ccc(Cn2c(=O)n(C)c3cnc(-c4ccccc4C(C)C)nc32)cc1` [Compound I-496, 9-(4-(1-ethyl-1H-imidazol-2-yl)benzyl)-2-(2-isopropylphenyl)-7-methyl-7,9-dihydro-8H-purin-8-one], the concentration for half-maximal inhibition (IC50) was less than 50 nM.
